Test results reported in the supplement of paper PMC5908809.

Legend:
[1] = system: normal primary NK cells, pool 1 (3 donors) (IL-2 2.5 ng/mL); experiment: percent inhibition of viability; higher = more inhibition; details: 72 h
DERL-7 (IL-2 2.5 ng/mL) [2] = experiment: as above; details: 72 h
[3] = system: normal primary NK cells, pool 1 (3 donors), resting (IL-2 0 ng/mL); experiment: as above; details: 72 h
SNK-6 (IL-2 2.5 ng/mL) [4] = experiment: as above; details: 72 h
YT (IL-2 2.5 ng/mL) [5] = experiment: as above; details: 72 h
[6] = system: normal primary NK cells, pool 2 (3 donors) (IL-2 2.5 ng/mL); experiment: as above; details: 72 h
KHYG-1 (IL-2 2.5 ng/mL) [7] = experiment: as above; details: 72 h
NK-YS (IL-2 2.5 ng/mL) [8] = experiment: as above; details: 72 h
NKL (IL-2 2.5 ng/mL) [9] = experiment: as above; details: 72 h
KAI3 (IL-2 2.5 ng/mL) [10] = experiment: as above; details: 72 h
[11] = system: normal primary NK cells, pool 3 (3 donors) (IL-2 2.5 ng/mL); experiment: as above; details: 72 h
NK-92 (IL-2 2.5 ng/mL) [12] = experiment: as above; details: 72 h
IMC-1 (IL-2 20 ng/mL) [13] = experiment: as above; details: 72 h
[14] = system: normal primary NK cells, pool 1 (3 donors) (IL-2 2.5 ng/mL); experiment: drug sensitivity score (DSS) (DSS units); higher = more sensitive; extreme values may be limits of the assay; details: 72 h
DERL-7 (IL-2 2.5 ng/mL) [15] = experiment: as above; details: 72 h
[16] = system: normal primary NK cells, pool 1 (3 donors), resting (IL-2 0 ng/mL); experiment: as above; details: 72 h
SNK-6 (IL-2 2.5 ng/mL) [17] = experiment: as above; details: 72 h
YT (IL-2 2.5 ng/mL) [18] = experiment: as above; details: 72 h
[19] = system: normal primary NK cells, pool 2 (3 donors) (IL-2 2.5 ng/mL); experiment: as above; details: 72 h
KHYG-1 (IL-2 2.5 ng/mL) [20] = experiment: as above; details: 72 h
NK-YS (IL-2 2.5 ng/mL) [21] = experiment: as above; details: 72 h
NKL (IL-2 2.5 ng/mL) [22] = experiment: as above; details: 72 h
KAI3 (IL-2 2.5 ng/mL) [23] = experiment: as above; details: 72 h
[24] = system: normal primary NK cells, pool 3 (3 donors) (IL-2 2.5 ng/mL); experiment: as above; details: 72 h
NK-92 (IL-2 2.5 ng/mL) [25] = experiment: as above; details: 72 h
IMC-1 (IL-2 20 ng/mL) [26] = experiment: as above; details: 72 h
[27] = system: normal NK cells expanded with K562-aAPC; experiment: percent inhibition of viability; higher = more inhibition; details: 72 h, IL-2 2.5 ng/mL
Protocol: (§1)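 Drug sensitivity and resistance testing on K562-aAPC-expanded normal NK cells: 5 concentrations (10-fold steps over a 10,000-fold range), 72 h at 37 °C, viability by CellTiter-Glo normalised to DMSO and benzethonium chloride controls; DSS from the fitted curve.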

[28] = system: normal NK cells expanded with K562-aAPC; experiment: drug sensitivity score (DSS) (DSS units); higher = more sensitive; extreme values may be limits of the assay; details: 72 h; IL-2 2.5 ng/mL
Protocol: as §1

CN(C)Cc1ccc(S(=O)(=O)n2ccc(/C=C/C(=O)NO)c2)cc1 [Resminostat] (max concentration tested 10000 nM)
percent inhibition of viability [%]
Details | 1 nM | 10 nM | 100 nM | 1000 nM | 10000 nM
DERL-7 (IL-2 2.5 ng/mL) [2] | 2.49 | 1.77 | -10 | 47.9 | 101
IMC-1 (IL-2 20 ng/mL) [13] | -6.01 | -4.89 | -2.77 | -7.01 | 101
KAI3 (IL-2 2.5 ng/mL) [10] | 1.92 | 3.59 | 28.4 | 71.5 | 104
KHYG-1 (IL-2 2.5 ng/mL) [7] | -5.72 | -0.43 | 1.19 | 68.5 | 106
NK-92 (IL-2 2.5 ng/mL) [12] | -4.22 | -5.89 | 2.76 | 72.4 | 104
NK-YS (IL-2 2.5 ng/mL) [8] | -6.67 | -3.77 | 2.32 | 34.2 | 103
NKL (IL-2 2.5 ng/mL) [9] | 10.2 | 0.52 | 26.1 | 80.8 | 106
SNK-6 (IL-2 2.5 ng/mL) [4] | 11.1 | 1.11 | 5.35 | 56.6 | 101
YT (IL-2 2.5 ng/mL) [5] | -1.93 | -2.18 | 2.96 | 27.7 | 105
[1] | 2.24 | 11.9 | 12.7 | 57.5 | 98.9
[3] | -6.63 | 11.2 | 20.3 | 73.7 | 89.4
[6] | -6.44 | 4.91 | 8.82 | 42 | 97.4
[11] | -1.68 | 4.21 | 3.8 | 20.1 | 98.5
[27] | -4.58 | -2.4 | -0.88 | 36.9 | 101

Details | drug sensitivity score
DERL-7 (IL-2 2.5 ng/mL) [15] | 11.5
IMC-1 (IL-2 20 ng/mL) [26] | 5.11
KAI3 (IL-2 2.5 ng/mL) [23] | 17.1
KHYG-1 (IL-2 2.5 ng/mL) [20] | 13.4
NK-92 (IL-2 2.5 ng/mL) [25] | 14.1
NK-YS (IL-2 2.5 ng/mL) [21] | 10.3
NKL (IL-2 2.5 ng/mL) [22] | 18.2
SNK-6 (IL-2 2.5 ng/mL) [17] | 12.3
YT (IL-2 2.5 ng/mL) [18] | 9.67
[14] | 13
[16] | 16.1
[19] | 10.2
[24] | 8.68
[28] | 10.6

c1ccc([C@H]2CN3CCSC3=N2)cc1 [Levamisole] (max concentration tested 10000 nM)
percent inhibition of viability [%]
Details | 1 nM | 10 nM | 100 nM | 1000 nM | 10000 nM
DERL-7 (IL-2 2.5 ng/mL) [2] | -5.12 | 0.58 | -3.2 | -6.8 | -8.1
IMC-1 (IL-2 20 ng/mL) [13] | 0.36 | -1.13 | -6.73 | -2.24 | -6.39
KAI3 (IL-2 2.5 ng/mL) [10] | -7.01 | -9.23 | -10.5 | -11.1 | -14.3
KHYG-1 (IL-2 2.5 ng/mL) [7] | -4.84 | -2.9 | -4.9 | -1.62 | -2.11
NK-92 (IL-2 2.5 ng/mL) [12] | -11.8 | -18.9 | -18.4 | -24.3 | -19.2
NK-YS (IL-2 2.5 ng/mL) [8] | -2.25 | -3.37 | -7.18 | -2.36 | -6.1
NKL (IL-2 2.5 ng/mL) [9] | -11.2 | 0.14 | -6.49 | -4.45 | -10.6
SNK-6 (IL-2 2.5 ng/mL) [4] | 3.65 | 13.1 | -14.1 | -5.97 | -47.5
YT (IL-2 2.5 ng/mL) [5] | -3.76 | -6.23 | -5.31 | -5.18 | -4.44
[1] | -7.56 | -2.22 | 4.92 | -0.77 | 2.81
[3] | -4.85 | -2.06 | 13.8 | 4.07 | 3.16
[6] | -4.91 | -0.55 | -10.1 | -7.03 | -10.1
[11] | -8.31 | -11.3 | -9.28 | -4.76 | -5.98
[27] | -4.29 | -11 | -5.79 | -6.94 | -11

Details | drug sensitivity score
DERL-7 (IL-2 2.5 ng/mL) [15] | 0
IMC-1 (IL-2 20 ng/mL) [26] | 0
KAI3 (IL-2 2.5 ng/mL) [23] | 0
KHYG-1 (IL-2 2.5 ng/mL) [20] | 0
NK-92 (IL-2 2.5 ng/mL) [25] | 0
NK-YS (IL-2 2.5 ng/mL) [21] | 0
NKL (IL-2 2.5 ng/mL) [22] | 0
SNK-6 (IL-2 2.5 ng/mL) [17] | 0
YT (IL-2 2.5 ng/mL) [18] | 0
[14] | 0
[16] | 0
[19] | 0
[24] | 0
[28] | 0
